Source: EP4692094A1 (Beijing Konruns Pharmaceutical Co., Ltd., priority 2023, dated 2024)

Each compound was assayed against T1, KAT6A (Homo sapiens, UniProt Q92794) (assay: Enzymatic activity assay for KAT6A acetyltransferase (TR-FRET, acetylation of histone substrate H3)).
T1 construct: purchased active motife (Active Motif) 81223
Assay type: biochemical
Protocol: The acetylation effect of KAT6A on histone substrate H3 was determined using the TR-FRET (time-resolved fluorescence resonance energy transfer) method.
• 1) The compounds prepared in the examples of the present disclosure were each dissolved in dimethylsulfoxide to give solutions at a concentration of 10 mmol/L, and then the solutions were diluted to 0.2 mmol/L, i.e., 1 µL of the compound was added to 49 µL of DMSO, and 3-fold dilution was performed to give 10 concentrations. • 2) 50 nL of the test compounds (example compounds) were transferred to 384 reaction plates using Echo, two replicates for each compound, and the plates were centrifuged at a rotation speed of 1000 rpm for 1 min, the final concentration of dimethylsulfoxide (DMSO) being 0.5%. • 3) 2.5 µL of the reaction mixtures obtained in step 2 was added to the 384 reaction plates in step 2), and the plates were centrifuged at 1000 rpm for 1 min and incubated at 25 °C for 10 min. • 4) 2.5 µL of Bio-H3&AcCOA (acetyl-CoA) reaction solution was added to the 384 reaction plates in step 3), and the plates were centrifuged at a rotation speed of 1000 rpm for 1 min and incubated at 25 °C for 90 min. • 5) 5 µL of Eu-Ab& Ulight-SA detection solution was added to the 384 reaction plates in step 4), and the plates were centrifuged at 1000 rpm for 1 min and incubated at 25 °C for 60 min. • 6) The HTRF […] signals were read using a BMG high-throughput drug-screening multi-mode microplate reader.
The acetylation level of the histone H3 was analyzed by the GraphPad Prism 8 software. The reading of the negative control (0.5% DMSO wells) was set as 0% inhibition rate, and the reading of the positive control (wells with the highest concentration of the control compound) was set as 100% inhibition rate. The inhibition rates were calculated, and then IC50 values (half maximal inhibitory concentration) of test compounds were obtained by using a software nonlinear fitting formula; [formula]
Datapositive control: mean of positive control well values; Datanegative control: mean of negative control well values. Table 3. Enzymatic inhibitory activity of example compounds

T1 sequence (Q92794 whole entry): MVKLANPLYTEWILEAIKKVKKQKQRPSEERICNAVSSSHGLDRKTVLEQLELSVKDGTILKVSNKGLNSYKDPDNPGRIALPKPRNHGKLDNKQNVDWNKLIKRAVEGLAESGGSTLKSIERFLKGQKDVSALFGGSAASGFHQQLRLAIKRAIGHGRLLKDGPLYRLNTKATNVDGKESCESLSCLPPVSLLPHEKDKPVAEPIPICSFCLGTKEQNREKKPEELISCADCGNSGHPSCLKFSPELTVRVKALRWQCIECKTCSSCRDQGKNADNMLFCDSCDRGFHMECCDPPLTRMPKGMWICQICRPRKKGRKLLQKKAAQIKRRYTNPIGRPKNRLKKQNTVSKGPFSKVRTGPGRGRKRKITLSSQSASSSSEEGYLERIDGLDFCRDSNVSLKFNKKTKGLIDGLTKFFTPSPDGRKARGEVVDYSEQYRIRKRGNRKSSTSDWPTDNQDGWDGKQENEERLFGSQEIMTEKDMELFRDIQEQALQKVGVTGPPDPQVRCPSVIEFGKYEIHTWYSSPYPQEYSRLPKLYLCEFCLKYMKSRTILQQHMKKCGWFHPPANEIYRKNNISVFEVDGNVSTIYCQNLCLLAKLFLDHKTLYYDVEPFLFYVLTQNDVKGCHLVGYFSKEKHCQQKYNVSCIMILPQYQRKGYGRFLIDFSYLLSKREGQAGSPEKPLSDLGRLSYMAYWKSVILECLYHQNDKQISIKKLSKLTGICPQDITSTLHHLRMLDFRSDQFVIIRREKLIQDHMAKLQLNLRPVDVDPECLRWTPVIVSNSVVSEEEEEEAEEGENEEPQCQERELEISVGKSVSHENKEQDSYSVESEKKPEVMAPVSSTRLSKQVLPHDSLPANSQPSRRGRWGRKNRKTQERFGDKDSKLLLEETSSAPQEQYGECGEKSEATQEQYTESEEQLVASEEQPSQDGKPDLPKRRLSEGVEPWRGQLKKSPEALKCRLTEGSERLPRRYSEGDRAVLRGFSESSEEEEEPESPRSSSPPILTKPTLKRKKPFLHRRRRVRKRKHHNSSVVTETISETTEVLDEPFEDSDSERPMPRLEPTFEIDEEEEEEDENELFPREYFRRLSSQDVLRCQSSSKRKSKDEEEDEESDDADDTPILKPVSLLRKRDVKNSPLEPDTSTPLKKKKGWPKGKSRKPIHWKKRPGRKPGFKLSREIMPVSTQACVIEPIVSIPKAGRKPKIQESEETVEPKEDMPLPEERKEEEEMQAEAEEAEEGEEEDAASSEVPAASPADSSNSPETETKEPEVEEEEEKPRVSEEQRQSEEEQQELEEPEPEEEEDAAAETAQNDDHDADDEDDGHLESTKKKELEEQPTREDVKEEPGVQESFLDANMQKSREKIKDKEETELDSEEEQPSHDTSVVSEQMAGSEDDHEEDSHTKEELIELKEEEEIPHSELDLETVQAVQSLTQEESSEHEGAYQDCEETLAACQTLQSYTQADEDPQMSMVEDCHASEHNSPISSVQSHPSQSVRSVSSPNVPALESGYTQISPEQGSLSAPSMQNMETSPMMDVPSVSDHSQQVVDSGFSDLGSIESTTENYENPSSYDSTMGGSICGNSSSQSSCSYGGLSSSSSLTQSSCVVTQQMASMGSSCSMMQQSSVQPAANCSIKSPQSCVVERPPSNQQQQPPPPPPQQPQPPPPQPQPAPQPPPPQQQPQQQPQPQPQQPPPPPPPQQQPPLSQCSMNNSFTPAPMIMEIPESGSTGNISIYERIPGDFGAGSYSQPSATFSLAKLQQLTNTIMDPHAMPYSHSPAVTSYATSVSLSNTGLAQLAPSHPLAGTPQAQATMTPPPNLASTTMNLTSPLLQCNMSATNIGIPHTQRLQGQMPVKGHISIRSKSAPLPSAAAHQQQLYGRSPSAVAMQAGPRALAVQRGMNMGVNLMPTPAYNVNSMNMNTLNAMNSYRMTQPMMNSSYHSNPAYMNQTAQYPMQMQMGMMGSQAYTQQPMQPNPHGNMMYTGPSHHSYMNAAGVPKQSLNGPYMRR

Row | Compound | IC50
1 | COc1nc(Cn2cccn2)cc2onc(NS(=O)(=O)c3cccc4c3OCCC4)c12 [Example 7, N-(6-((1H-Pyrazol-1-yl)methyl)-4-methoxyisoxazolo[4,5-c]pyridin-3-yl)-3,4-dihydro-1H-benzopyran-8-sulfonamide] | 5.68 nM
2 | COc1nc(Cn2nccn2)cc2onc(NS(=O)(=O)c3cccc4c3OCC4)c12 [Example 12, N-(6-((2H-1,2,3-Triazol-2-yl)methyl)-4-methoxyisoxazolo[4,5-c]pyridin-3-yl)-2,3-dihydrobenzofuran-7-sulfonamide] | 66.7 nM
3 | COc1nc(C(F)(F)n2cccn2)cc2onc(NS(=O)(=O)c3cccc4c3OCC4)c12 [Example 17, N-(6-(Difluoro(1H-pyrazol-1-yl)methyl)-4-methoxyisoxazolo[4,5-c]pyridin-3-yl)-2,3-dihydrobenzofuran-7-sulfonamide] | 8.67 nM
4 | COc1nc(C(F)n2cccn2)cc2onc(NS(=O)(=O)c3cccc4c3OCC4)c12 (stereo not drawn) [Example 18, N-(6-(Fluoro(1H-pyrazol-1-yl)methyl)-4-methoxyisoxazolo[4,5-c]pyridin-3-yl)-2,3-dihydrobenzofuran-7-sulfonamide] | 7.23 nM
5 | COc1nc(Cn2nccn2)cc2onc(NS(=O)(=O)c3cccc4c3ccn4C)c12 [Example 21, N-(6-((2H-1,2,3-Triazol-2-yl)methyl)-4-methoxyisoxazolo[4,5-c]pyridin-3-yl)-1-methyl-1H-indole-4-sulfonamide] | 75.9 nM
6 | COc1nc(Cn2cccn2)cc2onc(NS(=O)(=O)c3cccc4c3CCC4)c12 [Example 26, N-(6-((1H-Pyrazol-1-yl)methyl)-4-methoxyisoxazolo[4,5-c]pyridin-3-yl)-2,3-dihydro-1H-indene-4-sulfonamide] | 21.8 nM
7 | COc1nc(Cn2nccn2)cc2onc(NS(=O)(=O)c3cccc4c3OCCO4)c12 [Example 29, N-(6-((2H-1,2,3-Triazol-2-yl)methyl)-4-methoxyisoxazolo[4,5-c]pyridin-3-yl)-2,3-dihydrobenzo[b][1,4]dioxine-5-sulfonamide] | 1.57 nM
8 | COc1nc(Cc2cocn2)cc2onc(NS(=O)(=O)c3cccc4c3OCCO4)c12 [Example 31, N-(4-Methoxy-6-(oxazol-4-ylmethyl)isoxazolo[4,5-c]pyridin-3-yl)-2,3-dihydrobenzo[b][1,4]dioxine-5-sulfonamide] | 68.6 nM
9 | COc1nc(Cc2ccccn2)cc2onc(NS(=O)(=O)c3cccc4c3OCCO4)c12 [Example 32, N-(4-Methoxy-6-(pyridin-2-ylmethyl)isoxazolo[4,5-c]pyridin-3-yl)-2,3-dihydrobenzo[b][1,4]dioxine-5-sulfonamide] | 34.7 nM
10 | C#Cc1ccc(S(=O)(=O)Nc2noc3cc(Cn4cccn4)nc(OC)c23)c2c1CCO2 [Example 33, N-(6-((1H-Pyrazol-1-yl)methyl)-4-methoxyisoxazolo[4,5-c]pyridin-3-yl)-4-ethynyl-2,3-dihydrobenzofuran-7-sulfonamide] | 3.13 nM
11 | COc1cc2c(cc1S(=O)(=O)Nc1noc3cc(Cn4nccn4)nc(OC)c13)CCCC2 [Example 34, N-(6-((2H-1,2,3-Triazol-2-yl)methyl)-4-methoxyisoxazolo[4,5-c]pyridin-3-yl)-3-methoxy-5,6,7,8-tetrahydronaphthalene-2-sulfonamide] | 12.6 nM
12 | COc1nc(Cn2cccn2)cc2onc(NS(=O)(=O)c3cccc4cccnc34)c12 [Example 46] | 1.67 nM
13 | COc1nc(Cn2cccn2)cc2onc(NS(=O)(=O)c3cccc4occc34)c12 [Example 47, N-(6-((1H-Pyrazol-1-yl)methyl)-4-methoxyisoxazolo[4,5-c]pyridin-3-yl)benzofuran-4-sulfonamide] | 4.67 nM
14 | COc1nc(Cn2cccn2)cc2onc(NS(=O)(=O)c3cccc4nc(C)oc34)c12 [Example 48, N-(6-((1H-Pyrazol-1-yl)methyl)-4-methoxyisoxazolo[4,5-c]pyridin-3-yl)-2-methylbenzo[d]oxazole-7-sulfonamide] | 22.7 nM
15 | COc1nc(Cn2cccn2)cc2onc(NS(=O)(=O)c3cccc4ccn(C)c34)c12 [Example 49, N-(6-((1H-Pyrazol-1-yl)methyl)-4-methoxyisoxazolo[4,5-c]pyridin-3-yl)-1-methyl-1H-indole-7-sulfonamide] | 67.8 nM
16 | COc1nc(Cn2cccn2)cc2onc(NS(=O)(=O)c3ccc4c(c3)CCCO4)c12 [Example 50, N-(6-((1H-Pyrazol-1-yl)methyl)-4-methoxyisoxazolo[4,5-c]pyridin-3-yl)-3,4-dihydro-1H-benzopyran-6-sulfonamide] | 8.67 nM
17 | COc1nc(Cn2cccn2)cc2onc(NS(=O)(=O)c3cccc4c3OC(F)(F)O4)c12 [Example 51, N-(6-((1H-Pyrazol-1-yl)methyl)-4-methoxyisoxazolo[4,5-c]pyridin-3-yl)-2,2-difluorobenzodioxole-4-sulfonamide] | 18.2 nM
18 | COc1nc(Cn2cccn2)cc2onc(NS(=O)(=O)c3ccc4oc(C)nc4c3)c12 [Example 52, N-(6-((1H-Pyrazol-1-yl)methyl)-4-methoxyisoxazolo[4,5-c]pyridin-3-yl)-2-methylbenzo[d]oxazole-5-sulfonamide] | 34.3 nM
19 | COc1nc(Cn2cccn2)cc2onc(NS(=O)(=O)c3ccc4occc4c3)c12 [Example 53, N-(6-((1H-Pyrazol-1-yl)methyl)-4-methoxyisoxazolo[4,5-c]pyridin-3-yl)benzofuran-5-sulfonamide] | 4.56 nM
20 | COc1nc(Cn2cccn2)cc2onc(NS(=O)(=O)c3ccc4c(c3)CN(C)C(=O)O4)c12 [Example 54, N-(6-((1H-Pyrazol-1-yl)methyl)-4-methoxyisoxazolo[4,5-c]pyridin-3-yl)-3-methyl-2-oxo-3,4-dihydro-2H-benzoxazine-6-sulfonamide] | 110 nM
21 | COc1nc(Cn2cccn2)cc2onc(NS(=O)(=O)c3ccc4ncsc4c3)c12 [Example 55, N-(6-((1H-Pyrazol-1-yl)methyl)-4-methoxyisoxazolo[4,5-c]pyridin-3-yl)benzothiazole-6-sulfonamide] | 8.79 nM
22 | COc1ccc2ccn(C)c2c1S(=O)(=O)Nc1noc2cc(Cn3cccn3)nc(OC)c12 [Example 56, N-(6-((1H-Pyrazol-1-yl)methyl)-4-methoxyisoxazolo[4,5-c]pyridin-3-yl)-6-methoxy-1-methyl-1H-indole-7-sulfonamide] | 16.3 nM
23 | COc1ccc2c(c1S(=O)(=O)Nc1noc3cc(Cn4cccn4)nc(OC)c13)OCO2 [Example 58, N-(6-((1H-Pyrazol-1-yl)methyl)-4-methoxyisoxazolo[4,5-c]pyridin-3-yl)-5-methoxy-1,3-benzodioxole-4-sulfonamide] | 0.66 nM
24 | COc1c(Cl)c2c(c(OC)c1S(=O)(=O)Nc1noc3cc(Cn4cccn4)nc(OC)c13)CCC2 [Example 63, N-(6-((1H-Pyrazol-1-yl)methyl)-4-methoxyisoxazolo[4,5-c]pyridin-3-yl)-7-chloro-4,6-dimethoxy-2,3-dihydro-1H-indene-5-sulfonamide] | 5.98 nM
25 | COc1ccc(S(=O)(=O)Nc2noc3cc(Cn4cccn4)nc(OC)c23)c2occc12 [Example 64, N-(6-((1H-Pyrazol-1-yl)methyl)-4-methoxyisoxazolo[4,5-c]pyridin-3-yl)-4-methoxybenzofuran-7-sulfonamide] | 8.85 nM
26 | COc1ccc2cc(C)oc2c1S(=O)(=O)Nc1noc2cc(Cn3cccn3)nc(OC)c12 [Example 65, N-(6-((1H-Pyrazol-1-yl)methyl)-4-methoxyisoxazolo[4,5-c]pyridin-3-yl)-6-methoxy-2-methylbenzofuran-7-sulfonamide] | 2.01 nM
27 | COc1ccc2c(c1S(=O)(=O)Nc1noc3cc(Cn4cccn4)nc(OC)c13)OC(C)C2 (stereo not drawn) [Example 66, N-(6-((1H-Pyrazol-1-yl)methyl)-4-methoxyisoxazolo[4,5-c]pyridin-3-yl)-6-methoxy-2-methyl-2,3-dihvdrobenzofuran-7-sulfonamide] | 1.22 nM
28 | COc1cc2c(cc1S(=O)(=O)Nc1noc3cc(Cn4cccn4)nc(OC)c13)OCCC2 [Example 67, N-(6-((1H-Pyrazol-1-yl)methyl)-4-methoxyisoxazolo[4,5-c]pyridin-3-yl)-6-methoxy-3,4-dihydro-1H-benzopyran-7-sulfonamide] | 1.31 nM
29 | COc1ccc2ccoc2c1S(=O)(=O)Nc1noc2cc(Cn3cc(F)cn3)nc(OC)c12 [Example 68, N-(6-((4-Fluoro-1H-pyrazol-1-yl)methyl)-4-methoxyisoxazolo[4,5-c]pyridin-3-yl)-6-methoxvbenzofuran-7-sulfonamide] | 2.41 nM
30 | COc1cc2c(ccn2C)cc1S(=O)(=O)Nc1noc2cc(Cn3cccn3)nc(OC)c12 [Example 69, N-(6-((1H-Pyrazol-1-yl)methyl)-4-methoxyisoxazolo[4,5-c]pyridin-3-yl)-6-methoxy-1-methyl-1H-indole-5-sulfonamide] | 0.87 nM
